Values of other authors in patent US6191117A, “Methods of producing weight loss and treatment of obesity” (priority 2000, dated 2001).
Entries after “also recorded” stand apart in the source; their conditions may differ. Where two headings read alike, the source gives them in different places.

Experiments:
lateral hypothalamus [1] = details: injection into lateral hypothalamus
[2] = tested on: NMDA receptor glycine site
[3] = tested on: NMDA receptor glycine site; details: bilateral LH injection
[4] = tested on: strychnine-insensitive glycine-binding site
NMDA receptors [5] = details: in vivo
NMDA receptors [6] = tested on: NMDA receptors
lateral hypothalamus [7] = details: rats previously given intrahypothalamic injections
cerebral GABA = details: within three hours of oral administration
[8] = not given; remark: listed apart in the source
young healthy adults = details: acute doses and 2- and 4-week test periods
carbonic anhydrase CA-II = details: compared with acetozolamide
carbonic anhydrase CA-IV = details: compared with acetozolamide
seizure patients = details: for patients with weight decrease: adjunctive therapy, control 3%
[9] = tested on: PFH (perifornical hypothalamus)
[10] = tested on: PVN (paraventricular nucleus)
[11] = injection into LH bilaterally for 8 days
[12] = another study, epileptic patients
[13] = clinical trials on seizure patients

Cc1onc(O)c1CC(N)C(=O)O (racemic) [AMPA, D,L-α-amino-3-hydroxy-5-methyl-isoxazole proprionic acid]
eating response on LH injection (lateral hypothalamus [1]): elicit a strong dose-dependent eating response; also recorded: elicited eating in a dose-dependent fashion; also recorded: trigger intense eating; also recorded: quantitatively similar eating responses

O=C(O)c1cc(O)c2ccc(Cl)cc2n1 [7-CK, 7-chlorokynurenic acid]
AMPA-elicited eating ([2]; 7-CK 0.1 nmol): suppressed feeding elicited by KA or AMPA; also recorded: virtually blocking it | KA-elicited eating ([2]; 7-CK 0.1 nmol): suppressed feeding elicited by KA or AMPA; also recorded: suppressed KA-elicited eating | NMDA-elicited eating ([2]; 7-CK 0.1 nmol): enhanced NMDA-elicited eating | AMPA-elicited eating ([2]; 7-CK 10 nmol): suppressed eating elicited by AMPA | KA-elicited eating ([2]; 7-CK 10 nmol): enhancing eating elicited by KA; also recorded: markedly enhanced the KA-elicited response | NMDA-elicited eating ([2]; 7-CK 10 nmol): blocked NMDA-elicited eating | NMDA-elicited eating ([2]; LH injection before NMDA, satiated rats, dose not stated (high doses)): blocked | eating produced by fasting [3]: effectively suppressed eating produced by fasting | food intake ([4]; into intracerebral ventricles or paraventricular nucleus): dose-dependently increased food intake

N[C@H](CCCP(=O)(O)O)C(=O)O [D-AP5]
eating responses elicited by AMPA (NMDA receptors [5]): without affecting | eating responses elicited by kainic acid (NMDA receptors [5]): without affecting | reduction of the 10-gram eating response elicited by NMDA (NMDA receptors [5]): 72-90% | suppression of deprivation-induced eating responses (NMDA receptors [6]; in vivo): ≤ 61% | suppression of nocturnal eating (NMDA receptors [6]; in vivo): ≤ 40% | body weight loss (NMDA receptors [6]; [11]): up to 13 grams/day | reduction in daily food intake (NMDA receptors [6]; [11]): 65%

N[C@H](CO)C(=O)O [D-serine]
7CK induced feeding ([4]; rat, in vivo): dose-dependently antagonized 7CK induced feeding

C=C(C)[C@H]1CN[C@H](C(=O)O)[C@H]1CC(=O)O [KA, Kainic acid]
eating response on LH injection (lateral hypothalamus [1]): elicit a strong dose-dependent eating response; also recorded: elicited eating in a dose-dependent fashion; also recorded: trigger intense eating | eating response on LH injection (lateral hypothalamus [1]; listed as kainic acid): quantitatively similar eating responses | feeding and drinking (lateral hypothalamus [7]): impaired

Nc1nnc(-c2cccc(Cl)c2Cl)c(N)n1 [LTG]
action on sodium channel (sodium channel): blocking the sodium channel | anorexia and nausea incidence (100 mg and 200 mg, adjunctive therapy and monotherapy): 6-15% | effect on body weight (12 months or up to 144 weeks): no significant effect on body weight

CC1(C)O[C@@H]2[C@@H](CO[C@@]3(COS(N)(=O)=O)OC(C)(C)O[C@@H]23)O1 [TPM, 2,3:4,5-DI-O-isolpropylidene-B-D-fructopyranose sulfamate]
activity at the NMDA receptor (NMDA receptor): no effect on the activity of N-methyl-D-aspartate (NMDA) | activity at the kainate/AMPA receptor (kainate/AMPA receptor): antagonizing the kainate/AMPA | action on sodium channel (sodium channel): voltage-sensitive sodium channel blocking action | action on GABA (GABA receptor): potentiation of the effects of GABA | brain levels of cerebral GABA (cerebral GABA): acutely increase brain levels of cerebral GABA | time to peak (TTP) plasma concentrations ([8]; 400 mg dose): about 2 hours | dose recovered in urine ([8]; 100-mg dose): 81-95% | linearity of pharmacokinetics ([8]; 200 to 800 mg/day): linear with dose proportional increases in plasma concentration | route of elimination ([8]; TPM and its metabolites): predominantly renal | increase of plasma concentrations ([8]; hepatic impairment): 29% | clearance in hepatically impaired subjects ([8]; hepatically impaired subjects): may be decreased | extent of metabolism ([8]; in vivo): not extensively metabolized | metabolites identified in humans ([8]; in vivo): Six metabolites | renal tubular reabsorption ([8]; in vivo): evidence of renal tubular reabsorption | routes of metabolite formation ([8]; in vivo): hydroxylation, hydrolysis, and glucuronidation | plasma levels in moderate or severe renal impairment ([8]; moderate or severe renal impairment): plasma levels are increased | reduction of clearance ([8]; moderate renal impairment (creatinine clearance 30-69 mL/min/1.73 m^2) vs normal): 42% | eliminated unchanged in the urine ([8]; of an administered dose): approximately 70% | absorption ([8]; oral): rapid; also recorded: nearly complete | elimination half-life ([8]; patients with normal renal function): 20 to 30 h | dose excreted as unchanged TPM ([8]; predominantly renal elimination): 50-80% | reduction of clearance ([8]; severe renal impairment (creatinine clearance <30 mL/min/1.73 m^2) vs normal): 54% | mean plasma concentration half-life ([8]; single or multiple doses): 21 h | relative bioavailability, effect of food ([8]; tablet): not affected by food | bound to human plasma proteins (human plasma proteins; 1-250 μg/ml): 13-17% | plasma protein binding (human plasma proteins; concentration not given): approximately 15% | dose dependence of common adverse events (patients with seizures; 200 to 400 mg/day): did not appear to be dose-related | discontinuation due to adverse events (patients with seizures; 200 to 400 mg/day adjunctive therapy): 11% | common adverse events, controlled trials (patients with seizures; 200 to 400 mg/day, adults): somnolence, dizziness, ataxia, speech disorders and related speech problems, psychomotor slowing, abnormal vision, difficulty with memory, paresthesia and diplopia | most common dose-related adverse events (patients with seizures; 200 to 1,000 mg/day): fatigue, nervousness, difficulty with concentration or attention, confusion, depression, anorexia, language problems, anxiety, mood problems, and weight decrease | course of adverse events (patients with seizures; 200 to 1,000 mg/day, rapid dose titration of 200 mg/day): abated after 4 months of treatment | renal calculi incidence relative to similar untreated population (patients with seizures; about, expected in a similar, untreated population): 2-4 times | nonspecific CNS effects occasionally observed (patients with seizures; add-on therapy): dizziness or imbalance, confusion, memory problems, and exacerbation of mood disturbances (i.e., irritability and depression) | renal calculi (kidney stones) incidence (patients with seizures; adults): 1.5% | severity of somnolence and fatigue (patients with seizures; clinical trials, early in therapy): generally mild to moderate | dose dependence of fatigue incidence (patients with seizures; dosages above 400 mg/day): increases at dosages above 400 mg/day | central nervous system adverse events (patients with seizures; human, in vivo): psychomotor slowing, difficulty with concentration, and speech or language problems, in particular, word-finding difficulty and somnolence and/or fatigue | correlation of plasma concentrations with adverse events (patients with seizures; human, in vivo): not correlated with the occurrence of adverse events | dose dependence of somnolence incidence (patients with seizures; human, in vivo): does not appear to be dose-related | adverse events associated with discontinuing therapy (patients with seizures; increased at dosages above 400 mg/day): somnolence, dizziness, anxiety, difficulty with concentration or attention, fatigue, and paresthesia | post-marketing adverse experiences (patients with seizures; post-marketing data): hepatic failure, hepatitis, pancreatitis, and renal tubular acidosis | attention and word fluency (young healthy adults): statistically significant declines on measures of attention and word fluency | inhibition of CA-II (carbonic anhydrase CA-II): weaker than that of acetozolamide | inhibition of CA-IV (carbonic anhydrase CA-IV): weaker than that of acetozolamide | carbonic anhydrase inhibition (carbonic anhydrase): weak carbonic anhydrase inhibitor | effect on urinary citrate excretion and urinary pH (carbonic anhydrase): reducing urinary citrate excretion and by increasing urinary pH | patients with weight decrease (seizure patients; 200-400 mg/day): 9% | patients with weight decrease (seizure patients; 600-1,000 mg/day): 13% | weight loss with valproate or valproate plus carbamazepine co-treatment (seizure patients; also treated with valproate, or valproate with carbamazepine): tended to be higher | amount of weight increase (seizure patients; another study, 2/12 patients): 12-25 pounds | amount of weight loss (seizure patients; another study, 5/12 patients): 12-42 pounds | patients with weight increase (seizure patients; [12]): 2/12 | patients with weight loss (seizure patients; [12]): 5/12 | average decline from baseline weight (seizure patients; [13]): 2-8% | average weight loss (seizure patients; [13]): 2 to 8 kg | report of anorexia in patients with weight loss (seizure patients; human, in vivo): more likely to report anorexia or loss of appetite | time to peak of weight loss (seizure patients; human, in vivo): 12-15 months | body weight after prolonged therapy (seizure patients; prolonged therapy): gradually returning toward pre-topiramate levels | patients with weight loss, long-term study (seizure patients; treated for up to 2.2 years): 26%

NC(=O)N1c2ccccc2C=Cc2ccccc21 [carbamazepine]
weight gain as monotherapy (seizure patients): associated with weight gain

NCCc1ccc(O)c(O)c1 [dopamine]
effect on eating in PFH [9]: feeding-suppressive effects

CNC[C@H](O)c1ccc(O)c(O)c1 [epinephrine]
effect on eating in PFH [9]: feeding-suppressive effects

N[C@@H](CCC(=O)O)C(=O)O [glutamate]
eating response on LH injection (lateral hypothalamus [1]): elicit a strong dose-dependent eating response; also recorded: elicited eating in satiated rats | effect on eating in PVN [10]: relatively ineffective | autonomic and endocrine effects (PVN injection) ([10]; PVN injections): can produce autonomic and endocrine effects | effect on eating in PFH [9]: relatively ineffective | autonomic and endocrine effects (PFH injection) ([9]; PFH injections): can produce autonomic and endocrine effects

NCC(=O)O [glycine]
block by 7-CK of NMDA-elicited eating, after LH pretreatment with glycine ([2]; LH pretreatment): reversed this block

NC[C@H](O)c1ccc(O)c(O)c1 [norepinephrine]
effect on eating in PVN [10]: feeding-stimulatory effects

CCCC(CCC)C(=O)O [valproate]
weight gain as monotherapy (seizure patients): associated with weight gain

NCCCC(=O)O [γ-aminobutyric acid]
effect on eating in PVN [10]: feeding-stimulatory effects

neuropeptide Y
effect on eating in PFH [9]: feeding-stimulatory effects
